Test results reported in ChEMBL document CHEMBL4219072, “Enhancing the anti-biofilm activity of 5-aryl-2-aminoimidazoles through nature inspired dimerisation” (Bioorg Med Chem, 2018).

Tests used:
Salmonella typhimurium [1] = experiment: Antibiofilm activity against Salmonella typhimurium ATCC 14028 after 24 hrs by crystal violet staining based assay; format: functional, organism-based, Salmonella enterica subsp. enterica serovar Typhimurium; conditions: Salmonella enterica, ATCC 14028, 24 h
Pseudomonas aeruginosa = experiment: Antibiofilm activity against Pseudomonas aeruginosa PA14 after 24 hrs by crystal violet staining based assay; format: functional, organism-based; conditions: PA14, 24 h
Escherichia coli [2] = experiment: Antibiofilm activity against Escherichia coli TG1 after 24 hrs by crystal violet staining based assay; format: functional, organism-based; conditions: TG1, 24 h
Staphylococcus aureus [3] = experiment: Antibiofilm activity against Staphylococcus aureus SH1000 after 48 hrs by crystal violet staining based assay; format: functional, organism-based; conditions: SH1000, 48 h
Salmonella typhimurium [4] = experiment: Inhibition of planktonic growth of Salmonella typhimurium ATCC 14028 after 24 hrs; format: organism-based, Salmonella enterica subsp. enterica serovar Typhimurium; conditions: Salmonella enterica, ATCC 14028, 24 h
Escherichia coli [5] = experiment: Inhibition of planktonic growth of Escherichia coli TG1 after 24 hrs; format: organism-based; conditions: TG1, 24 h
Staphylococcus aureus [6] = experiment: Inhibition of planktonic growth of Staphylococcus aureus SH1000 after 48 hrs; format: organism-based; conditions: SH1000, 48 h

SMILES | IC50 (Salmonella typhimurium [1]) | IC50 (Pseudomonas aeruginosa) | IC50 (Escherichia coli [2]) | IC50 (Staphylococcus aureus [3]) | IC50 (Salmonella typhimurium [4]) | IC50 (Escherichia coli [5]) | IC50 (Staphylococcus aureus [6])
Brc1ccc(-c2cnc(NCCCCCCCNc3ncc(-c4ccc(Br)cc4)[nH]3)[nH]2)cc1 | 50.4 µM | 252 µM | 19.1 µM | 300 µM | > 800 µM | 122 µM | 217 µM
Clc1ccc(-c2cnc(NCCCCNc3ncc(-c4ccc(Cl)cc4)[nH]3)[nH]2)cc1 | 12.3 µM | 13 µM | 9.3 µM | 200 µM | 41.6 µM | 31.6 µM | 158 µM
Clc1ccc(-c2cnc(NCCCCCCNc3ncc(-c4ccc(Cl)cc4)[nH]3)[nH]2)cc1 | 30.5 µM | 80.4 µM | 24.8 µM | 150 µM | 529 µM | 96.6 µM | 327 µM
Brc1ccc(-c2cnc(NCCCCNc3ncc(-c4ccc(Br)cc4)[nH]3)[nH]2)cc1 | 13.2 µM | 11.2 µM | 7.2 µM | 300 µM | > 800 µM | > 100 µM | 145 µM
Brc1ccc(-c2cnc(NCCCCCCCCNc3ncc(-c4ccc(Br)cc4)[nH]3)[nH]2)cc1 | 31.3 µM | 893 µM | 90.6 µM | 68.1 µM | > 800 µM | 136 µM | 69.3 µM
Brc1ccc(-c2cnc(NCCCCCNc3ncc(-c4ccc(Br)cc4)[nH]3)[nH]2)cc1 | 6.5 µM | 13.4 µM | 10.5 µM | 12 µM | 35.9 µM | 22.4 µM | 26.4 µM
Brc1ccc(-c2cnc(NCCCNc3ncc(-c4ccc(Br)cc4)[nH]3)[nH]2)cc1 | 5.5 µM | 11.2 µM | 4.1 µM | 24.2 µM | 11.9 µM | 4.77 µM | 29.2 µM
Brc1ccc(-c2cnc(NCCCCCCNc3ncc(-c4ccc(Br)cc4)[nH]3)[nH]2)cc1 | 15.7 µM | 8.8 µM | 8.3 µM | 53.3 µM | > 800 µM | 6.43 µM | 93.8 µM
Clc1ccc(-c2cnc(NCCCNc3ncc(-c4ccc(Cl)cc4)[nH]3)[nH]2)cc1 | 2.7 µM | 5.6 µM | 4.9 µM | 13 µM | 11.4 µM | 14.7 µM | 23.5 µM
Clc1ccc(-c2cnc(NCCCCCNc3ncc(-c4ccc(Cl)cc4)[nH]3)[nH]2)cc1 | 3.8 µM | 6 µM | 12 µM | 94.4 µM | 15.2 µM | 224 µM | 90.2 µM
